Source: paper PMC8238948, “Potent inhibitors of toxic alpha-synuclein identified via cellular time-resolved FRET biosensors” (NPJ Parkinson's Disease, 2021)
Entries after “also recorded” stand apart in the source; their conditions may differ. Blank lines part the entries; values can stand above or below the molecule they belong to.

Tests used:
[1] = test system: inter-protomeric and intra-protomeric αSN FRET biosensors in HEK293 cells; experiment: Pilot HTS of the LOPAC library, fluorescence lifetime (FLT) of cellular αSN FRET biosensors; type: cell-based, human; details: 10 µM compound, 90 min; hit = FLT change >5 SD
Experimental: Prior to each pilot HTS, FLT and emission spectrum were measured to verify signal level, basal FRET, coefficient of variance (CV), and similarity index. For each HTS, cells were dispensed into compound plates—1536-well (10 µL/well)—and incubated with the compounds (10 µM) or dimethyl sulfoxide (DMSO; 1%) for 90 min. FLT measurements were acquired with the FLT-PR. After deconvolving the instrument response function, a single exponential fit was used to determine the FLT for both the αSN cellular FRET biosensor (τDA) and the donor-only control biosensor (τD). FRET efficiency was determined by Eq. 1. CV was determined from control plates (N = 384 wells).
Fluorescent compounds (FC) were flagged using a spectral similarity index filter, which evaluates the ratio of intensity from two bandwidths that span the donor emission spectrum and are excluded as potential false positives[45],[46],[49],[51],[66]. […] Compounds that changed FLT by >5 standard deviations (SD) were considered hits (Fig. 5, red data points).
On each day of screening, the compound plates were equilibrated to room temperature (RT; 25 °C). The cells were harvested from the 100-mm plates by incubating with TrypLE (Invitrogen) for 2 min, washed three times in PBS by centrifugation at 200 × g, and filtered using 70-μm cell strainers (BD Falcon). Cell viability prior to screen was assessed using a trypan blue assay and confirmed to be >80%. Cells were diluted to 1.5E6 cells/mL. Expression of GFP-αSN and the αSN biosensors were confirmed by fluorescence microscopy prior to each screen (EvosFL-Auto microscope, Thermo Fisher Scientific, USA). During screening, cells (50 μL/well for 384-well; 10 μL/well for 1536-well) were dispensed by a Multidrop Combi liquid dispenser (Thermo, Pittsburg, PA, USA) into the assay plates containing the compounds and allowed to incubate at RT for 90 min before recording with the FLT-PR or SUPR (both instruments manufactured by Fluorescence Innovations Inc., both owned and provided by Photonic Pharma LLC), as described previously[46].
Interfering compounds were flagged as potential false positives by a set of stringent FC filters based on spectral analysis of each well from the LOPAC screen[45],[46]. After removal of FCs, a histogram of the FLT distribution from all compounds in the screen was plotted and fit to a Gaussian curve to obtain the mean (µ) and SD (σ). A hit was defined as a compound that attenuated the FLT efficiency by >5σ relative to the mean µ (Supplementary Fig. 12).

[2] = test system: αSN oligomerization; parameters: method as in PMID 23604588; details: read-out: apparent EC50, inhibition of αSN oligomerization; cited from earlier work
[3] = test system: SH-SY5Y cells overexpressing unlabeled wild-type (WT) αSN; experiment: CytoTox-Glo cytotoxicity assay: rescue of αSN-induced cytotoxicity; type: cell-based, human
Experimental: Hit compounds were evaluated for rescue of αSN-induced cytotoxicity in using an SH-SY5Y neuroblastoma cell model of alpha-synucleinopathy[18],[69]–[72]. […] A seven-point CRC for RO, BAY, DEM, and Anle138b (positive control compound[41],[73]) was performed to determine IC50 for each compound. […]
Cell cytotoxicity was measured using the CytoTox-Glo (Promega Corporation) Luminescence Assay Kit. SH-SY5Y human neuroblastoma cells were plated at a density of 5 × 10^6 cells/plate in 100 mm plate (Corning) and transfected with unlabeled WT αSN or equivalent vector-only control for 24 h. The transfected cells were then plated at a density of 5000 cells/well in white solid 96-well plate (Corning) with a total volume of 100 μL, followed by treatment with hit compounds spanning a range of concentrations (0.1 nM to 100 μM), as well as DMSO-only controls, for another 48 h. After incubation, 50 μL of CytoTox-Glo Cytotoxicity Assay Reagent was added to all wells followed by mixing by orbital shaking and incubation in the dark for 15 min at RT. Luminescence readings were measured using a Cytation3 Cell Imaging Multi-Mode Reader luminometer (BioTek). After the first read, 50 μL of Lysis Reagent was added, incubated for 15 min at RT, and a second read performed. Total viable cellular luminance was determined by the difference between the first and second luminescence signal and total cellular viability is determined by normalizing to the no-treatment samples.

[4] = biological target: T1, αSN oligomers (Homo sapiens, UniProt P37840); experiment: ThT content (β-sheet) of αSN oligomers after oligomerization assay; type: biochemical; details: 70 μM compound (1:5 compound:monomer), 12 h oligomerization; vs DMSO
T1 construct: made in house; host or cells: Escherichia coli BL21(DE3), T7-7 plasmid
Experimental: To explore the presence of β-sheet content in these oligomers, an aliquot was removed prior to cross-linking, diluted into 100 μM ThT working solution, and ThT fluorescence was monitored to detect the presence of β-sheet. Supplementary Fig. 22 presents each sample ThT content normalized to the PFF signal. We observed an increased ThT content in the αSN oligomers (αS-O) that was not affected by DMSO (vehicle) treatment.
A 10-μL aliquot from each sample was taken and diluted with 290 μL ThT working solution (100 μM ThT in PBS) and dispensed into 3 wells of a 384-well, black opaque plate. Additional samples of PBS, αSN(m), and αSN PFF were used as controls. Plates were incubated at ambient temperature for 10 min and then fluorescence read at 450ex/490em on a Spectromax-i3x (Molecular Devices).
Supplemental Figure 22. Characterization of β-sheet content in αSN oligomers due to hit compound
After the 12-hour oligomerization assay aliquots of each sample were
removed and diluted in 100μM ThT and fluorescence read in triplicate (450ex/490em) in 384-well plates. The
ThT signal was normalized to a signal from previously frozen αSN PFF aliquots. After completion of the
PFF, green bar) and the ThT signal was not affected by DMSO (red bar). Oligomerization in the presence of
control compounds, EGCG and Baicalin, at 70μM (a sub-stoichiometric,1:5 compound: monomer ratio)
Our hit compounds RO, DEM, and BAY had differential effects with
both DEM and BAY resulting in increased ThT content and RO not producing a significant change relative to
(1 picture or pasted object on this page, not shown here)

[5] = biological target: T2, αSN (15 μM monomeric αSN doped with 5% αSN PFF seeds) (Homo sapiens, UniProt P37840); experiment: Seeded Thioflavin-T aggregation assay; type: biochemical; details: 15 μM αSN monomer + 5% PFF; for IC50: 37 °C, max ThT intensity
T2 construct: made in house; host or cells: Escherichia coli BL21(DE3), T7-7 plasmid
Experimental: Figure 11 and Supplementary Fig. 23 present results from a dose-response-seeded aggregation assay. Vehicle, control, and hit compounds were incubated with 15 µM αSN(m), doped with 5% freshly sonicated αSN PFF in PBS under mild agitation (Supplementary Fig. 23a). […] Titration of control and hit compounds were run in triplicate; representative traces of hit compounds are illustrated in Fig. 11a with a full summary of each titration detailed in Supplementary Fig. 23c–h. IC50 was determined for each compound by determining the max ThT intensity for each concentration (Fig. 11b).
Seeded ThT aggregation assay was performed using 15 μM monomeric αSN doped with 5% (0.75 μM sonicated αSN pre-formed fibril (PFF) seeds) in a 384-well plate under slow agitation (300 RPM) at 37 °C. a Control samples for the aggregation include PBS (black), αSN monomer (brown), 5% αSN PFF (red), and the 15 μM monomer+5% PFF mixture (orange). Dose-response curves were made with a titration of compounds. […] In contrast, RO and DEM both show potent effects relative to Baicalin and EGCG controls. BAY does have some response, but it lags behind other hit compounds. b Normalizing the initial peak in ThT data allows us to estimate an IC50 for each hit. […] Although there is a small trend with BAY, the data cannot be fit to resolve an IC50.
ThT (Sigma, product no. T3516) was dissolved in PBS buffer and was filtered through a 0.2-µm syringe filter to make a stock solution of 2.5 mM. Working ThT concentration was 20 µM. PFF seeds were produced via constant agitation of 1000 RPM at 37 °C (ThermoMixer-C, Eppendorf, Hauppauge, NY) of 500 µL of 350 µM αSN in PBS in a 2 mL tube for 5 days. PFFs were aliquoted and flash frozen and stored at −80 °C until further use. PFF seeds were rapidly thawed, diluted to 35 µM in PBS, and sonicated 120 pulses at 50% using a probe-tip sonicator following the established protocols. Master mix samples for each of the different ThT assays were prepared and dispensed in triplicate as 50 µL in 384-well flat, black-bottom polypropylene plates (PN 781209, Greiner Bio-One) and sealed with fluorescently transparent film. Conditions for non-seeded, seeded, and cell homogenate assays varied slightly.
Seeded ThT experiments were performed at a lower monomer concentration to preclude spontaneous αSN aggregation during the time course of the experiment. For both seeded and cell homogenate experiments, sample were prepared in PBS + 20 µM ThT with or without 15 µM αSN(m) +/− 5% PFF (0.75 µM). Additional control samples of 15 µM PFF and 0.75 µM PFF were also prepared. All empty wells were filled with PBS for a thermal sink and to help prevent evaporation. Assay plates were prepared as pre-cellular FRET dose response above. Dose response was done across 8 concentrations (10 nM to 50 µM). The assay was run at 37 °C with mild shaking (200 RPM) in a Cytation3 plate reader. The ThT fluorescence was monitored with excitation filter of 450 nm and emission filter of 490 nm. Readings were acquired every 20 min for a minimum of 24 h. Seeded ThT aggregation IC50 values were determined by first normalizing all ThT curves to the maximal signal at plateau for the αSN + 5% PFF + DMSO samples. The normalized fluorescence at each concentration was fit to the Hill equation to resolve an effective IC50 of seeded aggregation inhibition.

[6] = test system: differentiated SH-SY5Y cells treated with sonicated human αSN PFF; experiment: Differentiated SH-SY5Y cell model of αSN PFF pathology (pS129 immunoblot); type: cell-based; details: 50 μM Baicalin, 200 nM human PFF, 48 h
Experimental: SH-SY5Y cells were differentiated using reduced serum (3%) media supplemented with 10 μM retinoic acid for 3 days and then changed to serum-free media supplemented with 10 ng/mL brain-derived neurotrophic factor for the remainder of the experiment. Stock αSN PFFs were diluted and sonicated as described previously. SH-SY5Y cultures were then treated with 200 nM PFF and PBS, DMSO, 1 μM drug compound (RO, BAY, or DEM), or 50 μM Baicalin. After 48 h, SH-SY5Y were washed with PBS and harvested in cold lysis buffer with protease and phosphatase inhibitors, as previously described. Approximately 15 μg of total protein was loaded onto a 4–20% Criterion TGX midi gel and probed using Syn1 (BD Biosciences, #610787; 1° 1:5000; 2° 1:10K) and pS^129 aSyn (abcam, ab59264; 1° 1:1000; 2° 1:5000) and a-tubulin (abcam, ab4074; 1° 1:1000; 2° 1:10K) page 19: Supplemental Figure 18. […] Differentiated SH-SY5Y cells were treated with PBS, vehicle (DMSO) or compounds with and without 200nM sonicated human αSN PFFs. […] These will be removed in subsequent densitometry analysis. (b) Replicates of PFF +/- compound treatment were ran for immunoblot analysis of pS129 immunoreactivity. (c) Densitometry analysis was performed using ImageLab from BioRad. Total pS129 signal (excluding the non- specific bands) was normalized to tubulin loading control. […] Quantification is normalized per lane to highlight change in the ratio of different species. Note, oligomers quantification is plotted relative to the right-y- axis. All statistical comparisons were to DMSO treatment using two-tailed t-test with * p<0.05; ** p<0.01; *** p<0.005.

[7] = biological target: T3, intra-protomeric αSN biosensor (GFP-αSN-RFP) in HEK293 cells (Homo sapiens, UniProt P37840); experiment: FRET response on intra-protomeric αSN biosensor; type: cell-based; details: 10 µM
T3 construct: In addition to full-length αSN fusion constructs, we observe both C-terminally and N-terminally truncated αSN species; expressed in transfected cells; host or cells: HEK293
Experimental: Hits were also evaluated with the intra-protomeric αSN and control, non-specific biosensors. […] The compounds RO, BAY, and DEM as well as the control EGCG each reduced FRET, indicating either reduction in oligomerization or expanded oligomer conformation. Tests of these compounds in two control biosensor systems (GFP/RFP at 1:8 and GFP-linker32-RFP; see Supplementary Fig. 13a, b, respectively) show no significant FRET change.
Fig. 7 FRET response to pilot HTS hits on intra-protomeric αSN biosensor. […] With both donor and acceptor XFP fused to one construct, this biosensor is sensitive to both oligomer formation as well as conformation. […] Experiments were performed with n = 3; *p < 0.05, **p < 0.01, ***p < 0.001, ns indicates no significant difference as determined by Student’s t test.

[8] = biological target: T4, WT αSN oligomer (inter-protomeric) FRET biosensor in HEK293 cells (Homo sapiens, UniProt P37840); experiment: FLT dose response, WT oligomer (inter-protomeric) FRET biosensor; type: cell-based; details: 1 nM to 50 μM
T4 construct: In addition to full-length αSN fusion constructs, we observe both C-terminally and N-terminally truncated αSN species; expressed in transfected cells; host or cells: HEK293
Experimental: (§1) Hits from the pilot HTS of the LOPAC library were selected and dispensed into 384-well plates to verify reproducible and specific FLT trends using the WT and A53T oligomer (inter-protomeric) FRET biosensors. Figure 6 presents a subset of these dose-response curves for hit compounds RO, BAY, SB206553, and DEM, along with known control compound EGCG. […] Assay quality was determined by Z′ (Eq. 2) where a Z′ > 0.5 indicates good assay quality. Using EGCG as control compound and the hit DEM, we calculated Z′ value of 0.76 and 0.66, respectively, indicating excellent assay quality.
(§2) Fig. 6 FRET dose response of pilot HTS hits. A subset of hits were evaluated using both WT (a) and A53T (b) oligomer biosensor to verify both increased FLT (disrupting αSN–αSN interactions) and decreased FLT (tighter aggregation or remodeled oligomers).
(§3) Compounds were tested in a FLT dose-response assay. The compound was dissolved to 10 mM in DMSO, then serially diluted in 96-well mother plates. Each hit was re-screened for FLT dose response across eight concentrations (1 nM to 50 μM). Compounds (0.5 μL) were transferred from mother plates into assay plates using a Mosquito HV liquid handler (TTP Labtech Ltd, UK). The preparations for αSN FRET biosensors were carried out as above.

[9] = biological target: T5, A53T αSN oligomer (inter-protomeric) FRET biosensor in HEK293 cells (Homo sapiens, UniProt P37840, A53T); experiment: FLT dose response, A53T oligomer (inter-protomeric) FRET biosensor; type: cell-based; details: 1 nM to 50 μM
T5 construct: In addition to full-length αSN fusion constructs, we observe both C-terminally and N-terminally truncated αSN species; expressed in transfected cells; host or cells: HEK293
Experimental: as §1, §2, §3

Molecule: N#C/C(=C\c1ccc(-c2cc(Cl)ccc2Cl)o1)C(=O)Nc1cccc2ncccc12 [AGK2]
identified as hit in the LOPAC screen [1]: identified

Molecule: Brc1cccc(-c2cc(-c3ccc4c(c3)OCO4)[nH]n2)c1 [Anle138b]
EC50 [2]: 2800 nM | EC50 ([3]; Homo sapiens, SH-SY5Y, 72-h transfection, 48-h exposure to compound, seven-point CRC, read-out: EC50, protection of SH-SY5Y cells from αSN-induced death): 900 nM

Molecule: O=C(O)[C@H]1O[C@@H](Oc2cc3oc(-c4ccccc4)cc(=O)c3c(O)c2O)[C@H](O)[C@@H](O)[C@@H]1O [Baicalin]
ThT signal of αSN oligomers [4]: complete loss of ThT signal | IC50 [5]: 387 nM | HMW pS129 signal [6]: strong HMW pS^129 signal | LMW oligomer pS129 fraction [6]: significantly reduced

Molecule: O=C1Nc2cc(Br)ccc2/C1=C1/Nc2ccccc2/C1=N\O [Bio]
identified as hit in the LOPAC screen [1]: identified

change in intra-protomeric FRET [7]: reduced FRET | ThT signal of αSN oligomers [4]: complete loss of ThT signal | FLT trend in dose response [8]: reduced donor FLT | FLT trend in dose response [9]: reduced donor FLT | IC50 [5]: 1100 nM
Molecule: O=C(O[C@@H]1Cc2c(O)cc(O)cc2O[C@@H]1c1cc(O)c(O)c(O)c1)c1cc(O)c(O)c(O)c1 [EGCG]

Molecule: Cn1c(=O)c(-c2c(Cl)cccc2Cl)cc2cnc(Nc3ccc(N4CCOCC4)cc3)nc21 [PD173952]
identified as hit in the LOPAC screen [1]: identified

Molecule: SB206553
rescue of αSN-induced cytotoxicity ([3]; dose response, 48-h exposure): no observed effect on cytotoxicity | rescue of toxicity in three-dose preliminary screen ([3]; three-dose assay): no rescue of toxicity | FLT trend in dose response [8]: increasing FLT trend; also recorded: mild recovery of FLT | FLT trend in dose response [9]: increasing FLT trend; also recorded: mild recovery of FLT | effect on seeded aggregation ([5]; titration up to 50 μM): no aggregation inhibition; also recorded: little to no effect on aggregation
